In patent publication US20230128372A1 (EXCALIBUR MEDICINES LIMITED, priority 2020, published 2023):

What was measured:
human hepatocytes = settings: cited from earlier work
rat glucokinase = molecular target: T1, rat glucokinase (Rattus norvegicus, UniProt P17712); settings: read-out: EC50 activation of glucokinase; recombinant rat enzyme, in vitro; cited from earlier work
T1 sequence (P17712 1-465): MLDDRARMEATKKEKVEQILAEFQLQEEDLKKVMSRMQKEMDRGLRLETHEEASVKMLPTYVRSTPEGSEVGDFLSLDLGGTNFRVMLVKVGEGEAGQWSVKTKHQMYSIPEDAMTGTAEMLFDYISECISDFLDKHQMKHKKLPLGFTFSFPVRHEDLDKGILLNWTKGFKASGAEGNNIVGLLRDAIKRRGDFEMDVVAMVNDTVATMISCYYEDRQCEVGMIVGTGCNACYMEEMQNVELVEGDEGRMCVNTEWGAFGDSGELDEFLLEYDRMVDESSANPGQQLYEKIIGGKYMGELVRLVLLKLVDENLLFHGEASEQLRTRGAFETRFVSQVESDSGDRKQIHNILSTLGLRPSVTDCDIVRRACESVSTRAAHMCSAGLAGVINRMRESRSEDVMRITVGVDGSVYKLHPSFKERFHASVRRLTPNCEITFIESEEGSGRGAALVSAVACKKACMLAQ

[1] = tested on: Japanese type 2 diabetic subjects; settings: cited from earlier work
healthy animals = settings: cited from earlier work
[2] = tested on: hospitalised diabetic patients with known or suspected COVID-19; settings: 60 patients, test and control group combined (blinded); 12 deaths expected from Coronad study
[3] = tested on: normo-glycaemic insulin resistant rats; settings: dosed acutely and once daily for up to 28 days, rapid onset of action; cited from earlier work
diabetic mice = settings: dosed acutely and once daily for up to 28 days, rapid onset of action; cited from earlier work
rat hepatocytes = settings: cited from earlier work
[4] = tested on: healthy, non-diabetic patients; settings: doses of 40 mg or 80 mg; hypoglycaemia defined as 2.7 mmol/l; cited from earlier work
human glucokinase = human glucokinase (Homo sapiens, UniProt P35557); settings: read-out: EC50 activation of glucokinase; recombinant human enzyme, in vitro; cited from earlier work
Chain of human glucokinase (P35557 whole entry): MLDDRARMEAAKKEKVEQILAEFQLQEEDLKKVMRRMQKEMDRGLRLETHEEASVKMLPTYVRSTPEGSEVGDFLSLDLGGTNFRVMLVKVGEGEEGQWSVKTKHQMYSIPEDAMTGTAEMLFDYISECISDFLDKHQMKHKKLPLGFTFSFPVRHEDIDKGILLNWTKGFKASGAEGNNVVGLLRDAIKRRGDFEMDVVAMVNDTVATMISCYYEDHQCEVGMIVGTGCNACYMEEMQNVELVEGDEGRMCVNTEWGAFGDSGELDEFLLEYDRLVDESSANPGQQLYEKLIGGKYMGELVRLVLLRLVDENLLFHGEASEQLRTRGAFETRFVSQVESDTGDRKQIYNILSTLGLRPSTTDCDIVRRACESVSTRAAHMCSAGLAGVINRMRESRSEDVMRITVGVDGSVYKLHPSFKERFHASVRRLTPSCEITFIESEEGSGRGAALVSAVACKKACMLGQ

COC[C@H](C)Oc1cc(Oc2cnc(C(=O)N3CCC3)cn2)cc(C(=O)Nc2cnc(C)cn2)c1 [AZD1656, 3-{[5-(Azetidin-1-ylcarbonyl)pyrazin-2-yl]oxy}-5-{[(1S)-1-methyl-2-(methyloxy)ethyl]oxy}-N-(5-methylpyrazin-2-yl)benzamide]
EC50 (human hepatocytes): 1390 nM
EC50 (rat glucokinase): 72 nM
HbA1c and fasting plasma glucose (FPG) levels ([1]; BID at high (40-200 mg/day), medium (20-140 mg/day) and low (10-80 mg/day) doses over 4 months): found to lower HbA1c and fasting plasma blood (FPG) glucose levels
change in HbA1c or FPG from baseline ([1]; at 4 months): no statistically significant change
time course of HbA1c/FPG effect ([1]; between weeks 8 and 16): transient trending towards pre-dose levels
changes in the liver, considered secondary to hypoglycaemia (healthy animals; healthy animals, chronic toxicology studies): loss of hepatocellular glycogen
chronic toxicology findings (healthy animals; healthy animals, higher doses, up to 12 months): severe hypoglycaemia at higher doses and sequalae such as Wallerian type nerve degeneration and skeletal muscle fibre degeneration
glucose lowering effect (healthy animals; preclinical studies of up to 12-month duration): potent glucose lowering effect
deaths among patients who completed the trial protocol [2]: 5
plasma glucose levels [3]: reduces plasma glucose levels in a dose-dependent fashion
plasma glucose levels (diabetic mice): reduces plasma glucose levels in a dose-dependent fashion
EC50 (rat hepatocytes): 470 nM
hypoglycaemia [4]: not to cause hypoglycaemia
EC50 (human glucokinase): 57 nM
